Test [1] can be described thus: Neuroprotective activity against NMDA-induced neurotoxicity in Sprague-Dawley rat hippocampal neurons assessed as increase in cell viability at 10 uM incubated for 18 hrs followed by NMDA addition and measured after 0.5 hrs by MTT assay. Type of test: functional, Hippocampal neurone. The following applies: time 18.5 hrs. In general terms: Tetrazolium assays rely on reduction of a dye to a coloured formazan, in cell work by metabolically active cells.

Test [2] can be described thus: Neuroprotective activity against NMDA-induced neurotoxicity in Sprague-Dawley rat hippocampal neurons assessed as increase in cell viability at 0.1 uM incubated for 18 hrs followed by NMDA addition and measured after 0.5 hrs by MTT assay. Conditions: time 18.5 hrs. It counts as functional, Hippocampal neurone.
Test [3] can be described thus: Neuroprotective activity against NMDA-induced neurotoxicity in Sprague-Dawley rat hippocampal neurons assessed as increase in cell viability at 1 uM incubated for 18 hrs followed by NMDA addition and measured after 0.5 hrs by MTT assay. Type of test: functional, Hippocampal neurone. The following applies: time 18.5 hrs.
Test [4] addresses Glutamate NMDA receptor. Put plainly: Displacement of [3H] ifenprodil from Wistar rat glutamate NMDA receptor incubated for 2 hrs by scintillation counting method. Type of test: protein-complex assay. (In general: Loss of bound radioactivity is the signal in a displacement assay; it reports binding, not function.)
Test [5] has as its system Rattus norvegicus. Briefly: Neuroprotective activity in Sprague-Dawley rat model of middle cerebral artery occlusion-induced ischemia-reperfusion injury assessed as decrease in neurological score at 20 mg/kg, po measured 24 hrs post injury by TTC staining based histological analysis. Type of test: functional.
The test system of test [6] is Rattus norvegicus. Briefly: Neuroprotective activity in Sprague-Dawley rat model of middle cerebral artery occlusion-induced ischemia-reperfusion injury assessed as decrease in cerebral infarction rate at 20 mg/kg, po measured 24 hrs post injury by TTC staining based histological analysis. Set-up: scale not given: the % may be the effect or the level left. Type of test: functional.

In test [7] the target is Ionotropic glutamate receptor NMDA 1/2C (Homo sapiens) (UniProt Q05586+Q14957). Briefly: Antagonist activity at GluN1/GluN2C NMDA receptor (unknown origin) transfected in HEK293 cells assessed as inhibition of glycine induced current response at 10 uM in presence of L-glutamate by patch-clamp method. Type of test: cell-based. (In general: In patch-clamp work, channel activity is measured electrically.)

The target of test [8] is Glutamate NMDA receptor; GRIN1/GRIN2A (Homo sapiens) (UniProt Q05586+Q12879). Put plainly: Antagonist activity at GluN1/GluN2A NMDA receptor (unknown origin) transfected in HEK293 cells assessed as inhibition of glycine induced current response at 10 uM in presence of L-glutamate by patch-clamp method. Type of test: cell-based.
Test [9] addresses Glutamate NMDA receptor; GRIN1/GRIN2B (Homo sapiens) (UniProt Q05586+Q13224). Put plainly: Antagonist activity at GluN1/GluN2B NMDA receptor (unknown origin) transfected in HEK293 cells assessed as inhibition of glycine induced current response at 10 uM in presence of L-glutamate by patch-clamp method. It counts as cell-based. The following applies: filed as antagonist.
In test [10] the target is Ionotropic glutamate receptor NMDA 1/2D (Homo sapiens) (UniProt Q05586+O15399). Briefly: Antagonist activity at GluN1/GluN2D NMDA receptor (unknown origin) transfected in HEK293 cells assessed as inhibition of glycine induced current response at 10 uM in presence of L-glutamate by patch-clamp method. It counts as cell-based.

`COc1ccc(CN2CCN(CCCC3OC(=O)c4ccccc43)CC2)cc1OC` (stereo unspecified): the Activity in test [1] is given as 48.44%; in [2], 46.58%; in test [3] it was 47.16%.
Broadly, the Ki is the equilibrium dissociation constant of an inhibitor or competing ligand from its target. `CCCCC1OC(=O)c2ccccc21` (stereo not drawn) [RAC-3-N-BUTYLPHTHALIDE]: in test [4], the Ki was 14.8 nM. In addition, the Activity came to 2.13 in test [5]; 18.81% in test [6]; 73.45% in test [1]; 55.71% in test [2]; 57.94% in test [3].
In the case of `O=C1OC(CCCN2CCOCC2)c2ccccc21` (stereo unspecified), the values for the Activity in test [1], in test [2] and in test [3] were 76.22%, 57.15% and 65.19%, respectively.
A word on the inhibition: it is the drop in the measured response relative to a control, in per cent. Turning to `O=C1OC(CCCN2CCN(Cc3ccc(C(F)(F)F)cc3)CC2)c2ccccc21` (single isomer, unassigned; enantiomer B) [listing 1 of 2 here], the inhibition in test [7] is 16.2%; in test [8], 25.9%; in test [9], 81%; in test [10] it was 20.3%.
Regarding `O=C1OC(CCCN2CCN(Cc3ccccc3)CC2)c2ccccc21` (stereo unspecified), in test [4], the Ki was 13.6 nM. For the same compound, the Activity in [1] was determined as 81.91%; in test [2], 67.64%; in test [3], 79.85%.
On to `O=C1OC(CCCN2CCc3sccc3C2)c2ccccc21` (stereo unspecified), for which the Activity in [1] is 66.52%; in [2], 49.39%; in test [3], 61.1%.
As for `O=C1OC(CCCN2CCN(Cc3ccc(F)c(F)c3)CC2)c2ccccc21` (stereo unspecified), the Activity in test [1] was 75.45%; in test [2], 57.3%; in test [3], 65.4%.
On the same counts, the results for `O=C1OC(CCCN2CCN(Cc3ccc(Cl)cc3)CC2)c2ccccc21` (stereo unspecified) are 60.33%, 49.49% and 54.83%.
Regarding `Cc1ccc(CN2CCN(CCCC3OC(=O)c4ccccc43)CC2)cc1` (stereo unspecified), the Activity was 68.38% in test [1], 51.66% in test [2] and 64.44% in [3].
Take `CN(C)CCCC1OC(=O)c2ccccc21` (stereo unspecified): the Activity stood at 78.18% in test [1], 48.37% in test [2] and 77.37% in test [3].
For `O=C1OC(CCCN2CCN(Cc3ccc(Br)cc3)CC2)c2ccccc21` (stereo unspecified) the same measures were 46.13%, 46.12% and 45.56%.
For `O=C1OC(CCCN2CCN(Cc3ccc(F)cc3)CC2)c2ccccc21` (stereo unspecified) the same measures were 72.2%, 52.58% and 64.11%.
Consider `O=C1OC(CCCN2CCN(Cc3cccc([N+](=O)[O-])c3)CC2)c2ccccc21` (stereo unspecified), for which the Activity in test [1] was 73.28%; in test [2], 53.23%; in test [3] it was 69.03%.
Turning to `CN(C)CCC1OC(=O)c2ccccc21` (stereo unspecified), the Activity was 73.56% in test [1], 56.09% in test [2] and 71.66% in test [3].
Take `O=C1OC(CCCN2CCN(Cc3cccnc3)CC2)c2ccccc21` (stereo unspecified): the values for the Activity in [1], in test [2] and in [3] were 63.33%, 51.84% and 55.95%, respectively.
On the same counts, the results for `O=C1OC(CCCN2CCCC2)c2ccccc21` (stereo unspecified) are 73.16%, 56.53% and 65.3%.
On to `O=C1OC(CCCN2CCN(Cc3ccc4ccccc4n3)CC2)c2ccccc21` (stereo unspecified), for which the Activity in test [1] was 62.96%; in test [2], 49.69%; in test [3], 55.95%.
On to `O=C1OC(CCCN2CCN(Cc3cccc(Cl)c3)CC2)c2ccccc21` (stereo unspecified), for which the Activity in [1] worked out at 62.96%; in test [2] it was 49.69%; in test [3] it was 55.95%.
On to `O=C1OC(CCCN2CCN(Cc3ccc(C(F)(F)F)cc3)CC2)c2ccccc21` (single isomer, unassigned; enantiomer A) [listing 1 of 2 here], for which the inhibition was 14.9% in test [7], 23.4% in test [8], 71.9% in test [9] and 16.7% in test [10].
Regarding `O=C1OC(CCCN2CCC(CO)CC2)c2ccccc21` (stereo unspecified), the Activity in test [1] stood at 78.14%; in test [2], 60.19%; in [3], 74.86%.
Consider `O=C1OC(CCCN2CCN(Cc3ccc(C(F)(F)F)cc3)CC2)c2ccccc21` (racemic), for which the inhibition in [7] was 12%; in test [8] it was 26.6%; in test [9] it was 75.4%; in test [10] it was 10.3%.
As to `O=C1OC(CCCN2CCN(Cc3ccc(C(F)(F)F)cc3)CC2)c2ccccc21` (single isomer, unassigned; enantiomer A) [listing 2 of 2 here], the Activity in test [1] (10 µM) was 81.02%; in test [2] (0.1 µM), 62.81%; in test [3] (1 µM), 71.91%.
As to `O=C1OC(CCCN2CCN(Cc3ccncc3)CC2)c2ccccc21` (stereo unspecified), the Activity in test [1] is reported as 75.54%; in test [2], 57.55%; in test [3] it was 66.35%.
Take `Cc1cccc(CN2CCN(CCCC3OC(=O)c4ccccc43)CC2)c1` (stereo unspecified): the Activity was 67.43% in test [1], 53.08% in [2] and 61.15% in test [3].
On the same counts, the results for `O=C1OC(CCN2CCc3sccc3C2)c2ccccc21` (stereo unspecified) are 66.05%, 45.88% and 58.81%.
For `O=C1OC(CCCN2CCN(Cc3ccc([N+](=O)[O-])cc3)CC2)c2ccccc21` (stereo unspecified), in test [4], affinity was put at a Ki of 4.55 nM. For the same compound, the Activity in test [5] is 1.75; in test [6], 14.53%; in test [1] it was 88.35%; in test [2] it was 66.55%; in [3], 79.64%.
For `O=C1OC(CCCN2CCC(O)CC2)c2ccccc21` (stereo unspecified), the Activity in test [1] worked out at 77.13%; in test [2] it was 58.83%; in test [3], 67.72%.
For `O=C1OC(CCN2CCCC2)c2ccccc21` (stereo unspecified) the same measures were 70.66%, 57.21% and 66.34%.
For `CC(C(O)c1ccc(O)cc1)N1CCC(Cc2ccccc2)CC1` (stereo unspecified) [IFENPRODIL], the Activity stood at 1.75 in test [5]; 14.35% in [6]; 85.83% in test [1]; 65.93% in [2]; 76.98% in [3]. Further, the inhibition worked out at 28.8% in test [7], 13.1% in test [8], 135% in test [9] and 18.1% in test [10].
Take `O=C1OC(CCCN2CCN(Cc3ccccn3)CC2)c2ccccc21` (stereo unspecified): the Activity was found to be 74.65% in test [1], 57.46% in [2] and 67.89% in test [3].
For `CS(=O)(=O)c1ccc(CN2CCN(CCCC3OC(=O)c4ccccc43)CC2)cc1` (stereo unspecified), the Activity in [1] is reported as 61.02%; in test [2] it was 50.17%; in [3] it was 55.51%.
As for `O=C1OC(CCCN2CCN(Cc3ccc(C(F)(F)F)cc3)CC2)c2ccccc21` (single isomer, unassigned; enantiomer B) [listing 2 of 2 here], the Activity is listed as 81.82% in [1] (10 µM), 65.86% in [2] (0.1 µM) and 81.02% in [3] (1 µM).
`N#Cc1ccc(CN2CCN(CCCC3OC(=O)c4ccccc43)CC2)cc1` (stereo unspecified): the Activity was found to be 60.33% in test [1], 49.49% in [2] and 54.83% in [3].
On the same counts, the results for `O=C1OC(CCCN2CCC(Cc3ccccc3)CC2)c2ccccc21` (stereo unspecified) are 79.12%, 49.13% and 78.13%.
With `O=C1OC(CCCN2CCCCC2)c2ccccc21` (stereo unspecified), the Activity in [1] worked out at 77.85%; in test [2], 63.96%; in [3] it was 70.2%.
